Source: patent US10085449B2, “N-[1-((6-chloropyridin-3-yl)methyl)pyridin-2(1H)-ylidene]-2,2,2- trifluoroacetamide for control of agricultural/horticultural pests” (priority 2010, dated 2018)
Read-outs that look alike come from different tables or passages of the source.

Experiments:
Assay in all cases: whole plant or invertebrate
Format in all cases: in vivo
diamondback moth = conditions: Plutella xylostella, foliar
Description: (§1) Leaf discs 5.0 cm in diameter were cut from cabbage plants grown in pots, and these were sprayed with solutions of the inventive compounds at a predetermined concentration prepared to 50% acetone/water (containing 0.05% Tween 20). The treated leaf discs were air dried, following which second-instar larvae were released onto the discs. The leaf discs and larvae were then held in an incubation chamber at 25° C. (16-hour period of light, 8-hour dark period). Three days after released, the numbers of live and dead insects were counted, and the mortality was calculated from the following formula. This was a two-replication test. Mortality (%)=[number of dead insects/(number of live insects+number of dead insects)]×100

common cutworm = conditions: for Insecticidal effects (mortality), common cutworm third-instar larvae: foliar application; for mortality at 500 ppm: foliar, 72 h
Description: as §1, with “third-instar” for “second-instar”

cotton aphid = conditions: Aphis gossypii, foliar
Description: as §1, with “2.0” for “5.0”, “cucumber” for “cabbage”, “first-instar” for “second-instar”

small brown planthopper [1] = conditions: Laodelphax striatellus, foliar
Description: as §1, with “Rice seedlings” for “Leaf discs 5.0 cm in diameter were cut from cabbage plants”, “pots” for “pots, and these”, “subjected to the foliar application of” for “sprayed with”, “seedlings” for “leaf discs”, “seedlings.” for “discs.”

western flower thrips = conditions: Frankliniella occidentalis, foliar
Description: as §1, with “2.8” for “5.0”, “bean” for “cabbage”, “first-instar” for “second-instar”

rice leaf bug = conditions: foliar, 72 h
Description: The treated seedlings were air-dried, then each was placed in a glass cylinder and two second-instar rice leaf bug larvae were released within the same glass cylinder. Following release of the insects, the tube was capped and held in an incubation chamber at 25° C. (16-hour period of light, 8-hour dark period). […] Three days after released, the numbers of live and dead insects were counted, and the mortality was calculated from the following formula. Mortality (%)=[number of dead insects/(number of live insects+number of dead insects)]×100

small brown planthopper [2] = conditions: Laodelphax striatellus, in Triticum aestivum, 96 h
Description: Wheat seedling roots 48 hours after sowing were treated with solutions of the inventive compounds at a predetermined concentration prepared to 10% acetone/water. After allowing the roots to absorb the chemical for 72 hours, ten second-instar small brown planthopper larvae were released onto each seedling. The treated seedlings and larvae were then held in an incubation chamber at 25° C. (16-hour period of light, 8-hour dark period). Four days after released, the numbers of live and dead insects were counted, and the mortality was calculated from the following formula. The test was carried out as two replications. Mortality (%)=[number of dead insects/(number of live insects+number of dead insects)]×100

small brown planthopper [3] = conditions: Laodelphax striatellus, 72 h; for pest or weed control at 0.005 mg/pot / pest or weed control at 0.01 mg/pot / pest or weed control at 0.05 mg/pot: rice soil drenching, read-out: Small brown planthopper (rice soil drenching), effect; for pest or weed control at 0.005 mg/pot: 0.005 mg/pot (Table 13); for pest or weed control at 0.01 mg/pot: 0.01 mg/pot (Table 13); for pest or weed control at 0.05 mg/pot: 0.05 mg/pot (Table 13); for mortality at 0.05 mg/seedling / mortality at 0.005 mg/pot / mortality at 0.01 mg/pot / mortality at 0.05 mg/pot: soil; for mortality at 0.005 mg/pot / mortality at 0.01 mg/pot / mortality at 0.05 mg/pot: read-out: Insecticidal effects (mortality), small brown planthopper second-instar larvae
Description: Rice seedlings grown in pots were subjected to soil drenching treatment with solutions of the inventive compounds at a predetermined concentration prepared to 10% acetone/water. Three days following treatment, ten second-instar small brown planthopper larvae were released onto each seedling. The treated seedlings and larvae were then held in an incubation chamber at 25° C. (16-hour period of light, 8-hour dark period). Three days after released, the numbers of live and dead insects were counted, and the mortality was calculated from the following formula. The test was carried out as two replications. Mortality (%)=[number of dead insects/(number of live insects+number of dead insects)]×100

[4] = read-out: Insecticidal effects (mortality), diamondback moth second-instar larvae
[5] = read-out: Insecticidal effects (mortality), cotton aphid first-instar larvae
[6] = read-out: Insecticidal effects (mortality), small brown planthopper second-instar larvae
[7] = read-out: Insecticidal effects (mortality), western flower thrips first-instar larvae

`O=C(N=c1ccccn1Cc1cnc(Cl)c(F)c1)C(F)(F)F` [Compound 227, N-[1-((6-chloro-5-fluoropyridin-3-yl)methyl)pyridin-2(1H)-ylidene]-2,2,2-trifluoroacetamide] was tested, and the mortality at 20 ppm (diamondback moth; [4]) was 100%, the mortality at 100 ppm (diamondback moth; [4]) was 100% and the mortality at 500 ppm (diamondback moth; [4]) was 100%. For the same compound, the mortality at 100 ppm (diamondback moth; in Brassica oleracea, 72 h) was ≥ 80%, the mortality at 500 ppm (diamondback moth; in Brassica oleracea, 72 h) was ≥ 80% and the “Insecticidal effects (mortality), common cutworm third-instar larvae” value (from here on “Insecticidal effects (mortality)”) (common cutworm; 100 ppm) was 56. The “Insecticidal effects (mortality)” value (common cutworm; 500 ppm) was 100, the mortality at 500 ppm (common cutworm) was ≥ 80% and the mortality at 1.25 ppm (cotton aphid; [5]) was 95%. For the same compound, the mortality at 5 ppm (cotton aphid; [5]) was 100%, the mortality at 20 ppm (cotton aphid; [5]) was 100% and the mortality at 100 ppm (cotton aphid; [5]) was 100%. The mortality at 500 ppm (cotton aphid; [5]) was 100%, the mortality at 20 ppm (cotton aphid; in Cucumis sativus, 72 h) was ≥ 80% and the mortality at 100 ppm (cotton aphid; in Cucumis sativus, 72 h) was ≥ 80%. The mortality at 500 ppm (cotton aphid; in Cucumis sativus, 72 h) was ≥ 80%, the mortality at 5 ppm (small brown planthopper [1]; [6]) was 100% and the mortality at 100 ppm (small brown planthopper [1]; in Oryza sativa, 72 h) was ≥ 80%. For the same compound, the mortality at 500 ppm (western flower thrips; 72 h) was ≥ 80%, the mortality at 100 ppm (western flower thrips; [7]) was 65% and the mortality at 500 ppm (western flower thrips; [7]) was 90%. For the same compound, the mortality at 50 ppm (rice leaf bug) was ≥ 80%, the mortality at 20 µg/seedling (small brown planthopper [2]) was ≥ 80% and the mortality at 0.5 mg/seedling (small brown planthopper [2]; [6]) was 50%. It also gave a mortality at 2 mg/seedling (small brown planthopper [2]; [6]) of 75%, a mortality at 20 mg/seedling (small brown planthopper [2]; [6]) of 100% and a pest or weed control at 0.005 mg/pot (small brown planthopper [3]) of 75%. The pest or weed control at 0.01 mg/pot (small brown planthopper [3]) was 100%, the pest or weed control at 0.05 mg/pot (small brown planthopper [3]) was 90% and the mortality at 0.05 mg/seedling (small brown planthopper [3]) was ≥ 80%. The mortality at 0.005 mg/pot (small brown planthopper [3]) was 75%, the mortality at 0.01 mg/pot (small brown planthopper [3]) was 100% and the mortality at 0.05 mg/pot (small brown planthopper [3]) was 90%.
With `O=C(N=c1ccccn1Cc1ccc(Br)nc1)C(F)(F)F` [Compound 231, N-[1-((6-bromopyridin-3-yl)methyl)pyridin-2(1H)-ylidene]-2,2,2-trifluoroacetamide] the mortality at 20 ppm (diamondback moth; [4]) was 100%, the mortality at 100 ppm (diamondback moth; [4]) was 100% and the mortality at 100 ppm (diamondback moth; in Brassica oleracea, 72 h) was ≥ 80%. The “Insecticidal effects (mortality)” value (common cutworm; 100 ppm) was 0, the “Insecticidal effects (mortality)” value (common cutworm; 500 ppm) was 0 and the mortality at 1.25 ppm (cotton aphid; [5]) was 74%. For the same compound, the mortality at 5 ppm (cotton aphid; [5]) was 100%, the mortality at 20 ppm (cotton aphid; [5]) was 100% and the mortality at 20 ppm (cotton aphid; in Cucumis sativus, 72 h) was ≥ 80%. For the same compound, the mortality at 100 ppm (small brown planthopper [1]; [6]) was 100%, the mortality at 500 ppm (western flower thrips; 72 h) was ≥ 80% and the mortality at 100 ppm (western flower thrips; [7]) was 55%. For the same compound, the mortality at 500 ppm (western flower thrips; [7]) was 85%, the mortality at 50 ppm (rice leaf bug) was ≥ 80% and the mortality at 20 µg/seedling (small brown planthopper [2]) was ≥ 80%. For the same compound, the mortality at 0.5 mg/seedling (small brown planthopper [2]; [6]) was 25%, the mortality at 2 mg/seedling (small brown planthopper [2]; [6]) was 75% and the mortality at 20 mg/seedling (small brown planthopper [2]; [6]) was 100%. The pest or weed control at 0.005 mg/pot (small brown planthopper [3]) was 70%, the pest or weed control at 0.01 mg/pot (small brown planthopper [3]) was 100% and the pest or weed control at 0.05 mg/pot (small brown planthopper [3]) was 100%. For the same compound, the mortality at 0.05 mg/seedling (small brown planthopper [3]) was ≥ 80%, the mortality at 0.005 mg/pot (small brown planthopper [3]) was 70% and the mortality at 0.01 mg/pot (small brown planthopper [3]) was 100%. It also gave a mortality at 0.05 mg/pot (small brown planthopper [3]) of 100%.
Compound `O=C(N=c1ccccn1Cc1ccc(Cl)nc1)C(F)(F)Cl` [Compound 239, 2-chloro-N-[1-((6-chloropyridin-3-yl)methyl)pyridin-2(1H)-ylidene]-2,2-difluoroacetamide] has a mortality at 20 ppm (diamondback moth; [4]) of 100%, a mortality at 100 ppm (diamondback moth; [4]) of 100% and a mortality at 500 ppm (diamondback moth; [4]) of 100%. The mortality at 100 ppm (diamondback moth; in Brassica oleracea, 72 h) was ≥ 80%, the mortality at 500 ppm (diamondback moth; in Brassica oleracea, 72 h) was ≥ 80% and the “Insecticidal effects (mortality)” value (common cutworm; 500 ppm) was 90. The mortality at 500 ppm (common cutworm) was ≥ 80%, the mortality at 20 ppm (cotton aphid; [5]) was 100% and the mortality at 100 ppm (cotton aphid; [5]) was 100%. For the same compound, the mortality at 500 ppm (cotton aphid; [5]) was 100%, the mortality at 20 ppm (cotton aphid; in Cucumis sativus, 72 h) was ≥ 80% and the mortality at 100 ppm (cotton aphid; in Cucumis sativus, 72 h) was ≥ 80%. The mortality at 500 ppm (cotton aphid; in Cucumis sativus, 72 h) was ≥ 80%, the mortality at 500 ppm (western flower thrips; [7]) was 40% and the mortality at 50 ppm (rice leaf bug) was ≥ 80%. For the same compound, the mortality at 20 µg/seedling (small brown planthopper [2]) was ≥ 80%, the mortality at 0.25 mg/seedling (small brown planthopper [2]; [6]) was 100% and the mortality at 0.5 mg/seedling (small brown planthopper [2]; [6]) was 100%. It also gave a mortality at 2 mg/seedling (small brown planthopper [2]; [6]) of 100%, a mortality at 20 mg/seedling (small brown planthopper [2]; [6]) of 100% and a pest or weed control at 0.005 mg/pot (small brown planthopper [3]) of 30%. For the same compound, the pest or weed control at 0.01 mg/pot (small brown planthopper [3]) was 80%, the pest or weed control at 0.05 mg/pot (small brown planthopper [3]) was 100% and the mortality at 0.05 mg/seedling (small brown planthopper [3]) was ≥ 80%. For the same compound, the mortality at 0.005 mg/pot (small brown planthopper [3]) was 30%, the mortality at 0.01 mg/pot (small brown planthopper [3]) was 80% and the mortality at 0.05 mg/pot (small brown planthopper [3]) was 100%.
In the case of `O=C(N=c1ccccn1Cc1ccc(Cl)nc1)C(F)(F)C(F)(F)F` [Compound 242, N-[1-((6-chloropyridin-3-yl)methyl)pyridin-2(1H)-ylidene]-2,2,3,3,3-pentafluoropropanamide], the mortality at 100 ppm (diamondback moth; [4]) is reported as 100%, the mortality at 500 ppm (diamondback moth; [4]) is reported as 100% and the mortality at 100 ppm (diamondback moth; in Brassica oleracea, 72 h) is reported as ≥ 80%. For the same compound, the mortality at 500 ppm (diamondback moth; in Brassica oleracea, 72 h) was ≥ 80%, the “Insecticidal effects (mortality)” value (common cutworm; 500 ppm) was 60 and the mortality at 1.25 ppm (cotton aphid; [5]) was 35%. It also gave a mortality at 5 ppm (cotton aphid; [5]) of 80%, a mortality at 20 ppm (cotton aphid; [5]) of 100% and a mortality at 100 ppm (cotton aphid; [5]) of 100%. The mortality at 20 ppm (cotton aphid; in Cucumis sativus, 72 h) was ≥ 80%, the mortality at 100 ppm (cotton aphid; in Cucumis sativus, 72 h) was ≥ 80% and the mortality at 500 ppm (western flower thrips; 72 h) was ≥ 80%. The mortality at 100 ppm (western flower thrips; [7]) was 76%, the mortality at 500 ppm (western flower thrips; [7]) was 100% and the mortality at 50 ppm (rice leaf bug) was ≥ 80%. The mortality at 0.5 mg/seedling (small brown planthopper [2]; [6]) was 100%, the mortality at 2 mg/seedling (small brown planthopper [2]; [6]) was 100% and the mortality at 20 mg/seedling (small brown planthopper [2]; [6]) was 100%. The pest or weed control at 0.05 mg/pot (small brown planthopper [3]) was 100%, the mortality at 0.05 mg/seedling (small brown planthopper [3]) was ≥ 80% and the mortality at 0.05 mg/pot (small brown planthopper [3]) was 100%.
With `O=C(N=c1ccccn1Cc1cnc(Cl)nc1)C(F)(F)F` [Compound 243, N-[1-((2-chloropyrimidin-5-yl)methyl)pyridin-2(1H)-ylidene]-2,2,2-trifluoroacetamide] the mortality at 100 ppm (diamondback moth; [4]) was 100%, the mortality at 500 ppm (diamondback moth; [4]) was 100% and the mortality at 100 ppm (diamondback moth; in Brassica oleracea, 72 h) was ≥ 80%. For the same compound, the mortality at 500 ppm (diamondback moth; in Brassica oleracea, 72 h) was ≥ 80%, the “Insecticidal effects (mortality)” value (common cutworm; 500 ppm) was 10 and the mortality at 1.25 ppm (cotton aphid; [5]) was 80%. For the same compound, the mortality at 5 ppm (cotton aphid; [5]) was 100%, the mortality at 100 ppm (cotton aphid; [5]) was 100% and the mortality at 500 ppm (cotton aphid; [5]) was 100%. The mortality at 20 ppm (cotton aphid; in Cucumis sativus, 72 h) was ≥ 80%, the mortality at 100 ppm (cotton aphid; in Cucumis sativus, 72 h) was ≥ 80% and the mortality at 500 ppm (cotton aphid; in Cucumis sativus, 72 h) was ≥ 80%. The mortality at 500 ppm (western flower thrips; 72 h) was ≥ 80%, the mortality at 500 ppm (western flower thrips; [7]) was 100% and the mortality at 50 ppm (rice leaf bug) was ≥ 80%. The mortality at 0.5 mg/seedling (small brown planthopper [2]; [6]) was 100%, the mortality at 2 mg/seedling (small brown planthopper [2]; [6]) was 100% and the mortality at 20 mg/seedling (small brown planthopper [2]; [6]) was 100%. For the same compound, the pest or weed control at 0.05 mg/pot (small brown planthopper [3]) was 100%, the mortality at 0.05 mg/seedling (small brown planthopper [3]) was ≥ 80% and the mortality at 0.05 mg/pot (small brown planthopper [3]) was 100%.
